Experimental data: PMC10575921 (Nature Communications, 2023)
Values joined by “and” are separate entries in the source; they are usually repeats but may differ in a detail not shown here. Equal values may be shown once.

Target: SARS-CoV-2 3CL^pro C145G (Severe acute respiratory syndrome coronavirus 2, UniProt P0DTD1, C3408G)
Assay type: binding

Q: How did the “-TΔS” value turn out when CC(C)(C)[C@H](NC(=O)C1(F)CC1)C(=O)N1CC2(C[C@H]1C(=O)N[C@H](C#N)C[C@@H]1CCNC1=O)SCCS2 [compound 10] was run?
A: Its value is -2.18 ± 0.562 kcal/mol and -2.18 kcal/mol.

Q: With CC(C)(C)[C@H](NS(=O)(=O)C1CC1)C(=O)N1CC2(C[C@H]1C(=O)N[C@H](C#N)C[C@@H]1CCNC1=O)SCCS2 [compound 12] as the molecule, how does the “-TΔS” value read?
A: Its value is -1.19 ± 0.325 kcal/mol and -1.19 kcal/mol.

Q: How did the “-TΔS” value turn out when CC(C)(C)[C@H](NS(C)(=O)=O)C(=O)N1CC2(C[C@H]1C(=O)N[C@H](C#N)C[C@@H]1CCNC1=O)SCCS2 [compound 11] was run?
A: The value was -3.559 ± 0.332 kcal/mol and -3.559 kcal/mol.

Q: CC(C)(C)NC(=O)N[C@H](C(=O)N1C[C@H]2[C@@H]([C@H]1C(=O)N[C@H](C#N)C[C@@H]1CCNC1=O)C2(C)C)C(C)(C)C [compound 2] was tested. Which “-TΔS” value did it give?
A: Its value is -5.978 ± 0.1 kcal/mol and -5.978 kcal/mol.

Q: CC(C)(C)NC(=O)N[C@H](C(=O)N1CC2(C[C@H]1C(=O)N[C@H](C#N)C[C@@H]1CCNC1=O)SCCS2)C(C)(C)C [compound 7] was tested. Which “-TΔS” value did it give?
A: The value was -4.818 ± 0.268 kcal/mol and -4.818 kcal/mol.
